This is an account of results in patent US11389411B2, “Pharmaceutical composition, containing NM23 activator, for inhibiting cancer metastasis” (EWHA UNIVERSITY—INDUSTRY COLLABORATION FOUNDATION, priority 2017, dated 2022).

Read-outs that look alike come from different tables or passages of the source.

The target in assay [1] is T1, Nm23-H1 (Homo sapiens, UniProt P15531). Kind of assay: NDPK assay with recombinant Nm23-H1. The format is biochemical. The following applies: for Relative NDPK activity (±S.D): relative to a DMSO-treated group (DMSO = 1). The method, then:
(§1) 5 ng of recombinant Nm23-H1 was incubated with 5 μM ADP and a test substance (the compound of Formula 2-1, 3-1 or 4-1) in NDPK assay buffer (20 mM HEPES, 3 mM MgCl2) at mom temperature for 1 minute, and cell-based NDPK assay was performed. A cell lysate obtained from 5,000K MDA-MB-231 cells lysed with a protease inhibitor cocktail and an NDPK assay buffer was centrifuged at 8,000 rpm for 10 minutes at 4° C. 40 μL of the lysate was incubated with the test substance for 5 minutes, and then 50 μM UDP was added thereto and reacted with NDPK. ATP consumption was assessed by an ATP determination kit (Molecular probe, USA).

For assay [2], the target named is T1, Nm23-H1. Kind of assay: Surface plasmon resonance analysis of interaction with immobilized Nm23-H1. The following applies: SPR, 25° C.; for Kd: calculated Kd/Ka; for kon: read-out: Ka. The format is binding. Here is the method: The interaction between the compound of Formula 2-1 and Nm23-H1 was analyzed using a surface plasmon resonance instrument (SR7500 DC, Reichert Inc., NY) at 25° C.
Nm23-H1 (1 mg/ml) in 10 mM S.A buffer (pH 4.5) was immobilized using the standard amino coupling at 20 μL/min for 10 minutes on a carboxymethyl dextran hydrogel (CMDH) surface sensor chip (Reichert Technologies, NY) until saturation was achieved.
Different concentrations of the compound of Formula 2-1 (10-160 μM) in binding buffer (10 mM HEPES, pH 7.4, 100 mM NaCl, 1 mM MgCl2, and with or without 2 mM ATP) were allowed to flow over the immobilized Nm23-H1 (approximately 8200 RU) at a rate of 30 μL/min.
The sensor surface was regenerated after each association and dissociation cycle by injecting 2M NaCl for 1 min. Sensorgrams were fitted to a simple 1:1 Langmuir interaction model (A+B⇄AB) using data analysis program Scrubber 2.0 (BioLogic Sofware, Australia, and Kaleida Graph Sofware, Australia).
KD is a value obtained by calculating Kd/Ka.

Assay [3] concerns MDA-MB-231 cells. Kind of assay: Cell-based NDPK assay (MDA-MB-231 cell lysate). The following applies: FIG. 3C, MDA-MB-231 lysate, concentration dependence. Here is the method:
as §1

For another assay, the target named is Nm23-H2 (Homo sapiens, UniProt P22392). Kind of assay: NDPK activity assay on Nm23-H2. The format is biochemical. The following applies: FIG. 3D.
In assay [4] the target is T1, Nm23-H1. Kind of assay: Isothermal titration calorimetry. The format is binding. Conditions: FIG. 4, with and without ATP. Here is the method:
An ITC experiment was performed using the ITC200 system (Malvern Inc.), and the data were analyzed using ORIGIN 7.0 program. The concentration of Nm23-H1 protein in the cells was 30 μM, and the syringe contained 300 μM of the activator or 1 mM ATP. The activator was prepared at a concentration of 50 mM in DMSO (dimethyl sulfoxide) and stored at −20° C. ITC buffer contained (pH 7.5) 150 mM NaCl, 3 mM MgCl2 and 20 mM HEPES in up to 2% DMSO. For titration, each 2 μL was injected 20 times 25° C. at intervals of 150 seconds. No evidence of DMSO binding at the nucleotide binding site was observed. The experimental raw data were corrected by subtracting the value for the buffer, and then fitted to a single site binding model. The titration data were fitted using a nonlinear least squares curve-fitting algorithm with three floating variables: stoichiometry (N), dissociation constant (KD), and change of enthalpy of interaction.

Assay [5] deals with MDA-MB-231 cells. Kind of assay: Immunofluorescence analysis (F-actin, confocal microscopy). Conditions: FIG. 6A. The format is cell-based. Here is the method:
MDA-MB-231 cells were grown on the Secureslip™ (Sigma) cell culture glass cover slip to a confluence of 50 to 70%, and incubated in the presence or absence of the compound of Formula 2-1 for various periods of time. The cells were gently washed with cold HBSS, and then fixed with 4% paraformaldehyde-containing HBSS in RBS for 10 minutes. After washing with HBSS, permeabilization with 0.1% Triton X-100 was performed for 10 minutes at mom temperature. After washing twice with HBSS, the cells were blocked with HBSS containing 3% BSA, 0.2% Tween 20 and 0.2% gelatin at room temperature for 1 hour, and incubated with primary antibody at mom temperature for 1 hour. Then, the cells were incubated with fluorochrome-conjugated species-specific secondary antibodies for 1 hour.
All the antibodies were diluted with 1% BSA-containing HBSS. Coverslips were mounted with anti-fading solution, and viewed using a ×63 objective lens of an LSM510 META (Zeiss) laser scanning confocal microscope.

The test system of a further assay is Rac1. Kind of assay: Rac1 activity assay (active Rac1 pulldown). The format is cell-based. The method, then:
MDA-MB-231 cells were grown in a 100 mm dish and treated with the compound of Formula 2-1 or 0.05% DMSO at an indicated concentration for 16 hours. Active Rac1 pulldown assays were performed according to the manufacturer's instructions (Termo Fisher Scientifc).

Assay [6] deals with MDA-MB-231 cells. Kind of assay: Invasion assay and transwell migration assay in MDA-MB-231 cells. The format is cell-based. Here is the method:
(§2) When cells reached a confluence of 70%, the cells were treated with the compound of Formula 2-1 for 16 hours. 1×10^5 cells were suspended in PBS-free medium and added onto a Boyden chamber membrane. 10% PBS-containing culture was added to the bottom of the membrane. The chamber was incubated at 37° C. under 5% CO2 for 4 hours. The migrated cells were fixed and stained with crystal violet/methanol. The cells were photographed, and the migrated cells were counted and normalized to control cells.

Another assay concerns A549 cells. Kind of assay: Transwell migration and matrigel invasion of A549 cells. The class given is cell-based. The following applies: FIG. 7B. Here is the method: as §2
The next assay deals with MDA-MB-231 luc cells. Kind of assay: Breast cancer metastasis model (MDA-MB-231 luc cells in mammary fat pad). The format is in vivo, nude mice. An excerpt:
In order to confirm the metastasis suppressing activity of the compound of Formula 2-1 according to the present disclosure in an actual animal model, MDA-MB-231 luc cells were applied to a breast cancer metastasis model.

Setting [7] is: FIG. 7A, MDA-MB-231 cells, different concentrations.

T1 sequence (P15531 whole entry): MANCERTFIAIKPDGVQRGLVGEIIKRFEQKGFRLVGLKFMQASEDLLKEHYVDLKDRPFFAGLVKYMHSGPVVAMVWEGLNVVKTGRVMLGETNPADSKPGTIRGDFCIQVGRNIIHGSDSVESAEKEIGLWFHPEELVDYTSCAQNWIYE
Nm23-H2, sequence (P22392 whole entry): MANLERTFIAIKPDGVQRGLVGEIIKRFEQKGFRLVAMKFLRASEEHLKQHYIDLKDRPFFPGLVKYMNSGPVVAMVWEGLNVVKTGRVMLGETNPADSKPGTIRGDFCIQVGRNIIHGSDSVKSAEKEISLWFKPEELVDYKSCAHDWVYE

As to `COc1ccc(/C=C/c2ccccc2-c2ccc(OC)c(OC)c2)cc1OC` [Formula 3-1], on Nm23-H1 [1], the “Relative NDPK activity (±S.D)” value is on record as 4.11 (±0.16).
For the molecule `COc1ccc(/C=C/[C@H]2CCC=C[C@@H]2c2ccc(OC)c(OC)c2)cc1OC` [Formula 2-1], the results for the Kd at Nm23-H1 [2] (2 nM ATP) and on Nm23-H1 [2] (without ATP) were 1.49 ± 0.03 µM and 17.9 ± 0.2 µM, respectively. Further, the kon was 71 ± 1 M⁻¹ s⁻¹ on Nm23-H1 [2] (2 nM ATP) and 78 ± 1 M⁻¹ s⁻¹ on Nm23-H1 [2] (without ATP). At Nm23-H1 [1] (FIG. 3A, concentration dependence), the “NDPK activity of Nm23-H1” value was “increased depending on the concentration”. Besides, the “V0, Km of the enzyme (NDPK activity depending on the concentration of UDP)” value on Nm23-H1 [1] (FIG. 3B) is given as “Km-type activity similar to that of a conventional enzyme activator”. For the same molecule, the “Relative NDPK activity (±S.D)” value on Nm23-H1 [1] was 4.04 (±0.13). Further, the “cell-based NDPK activity” value in the assay with MDA-MB-231 cells [3] is on record as “increased depending on the concentration”. For the same molecule, the “NDPK activity on Nm23-H2” value at Nm23-H2 is reported as “showed the same activity”. At Nm23-H1 [4], the “direct interaction with Nm23-H1 (ITC)” value is “occurred and was further enhanced in the presence of ATP”. The “change of F-actin / cell morphology” value in the assay with MDA-MB-231 cells [5] was “ruffles decreased and intercellular contact increased”. For the same molecule, the “activity of Rac1” value in the assay on Rac1 (FIG. 6B, MDA-MB-231 cells, 16 hours) is on record as “reduced the activity of Rac1 in a concentration-dependent manner”. Also, the “effect on Rac1 activity after knockdown of Nm23-H1” value in the assay on Rac1 (FIGS. 6C and 6D) is “abolished by knockdown of Nm23-H1”. For the same molecule, the matrigel invasion entry with MDA-MB-231 cells [6] (setting [7]) and in the assay with A549 cells was “reduced” each time. The transwell migration result with MDA-MB-231 cells [6] (setting [7]) and in the assay on A549 cells was “reduced” in each case. Moreover, the “effect on migration/invasion after knockdown of Nm23-H1 and Nm23-H2” value in the assay with MDA-MB-231 cells [6] (FIG. 7C) is “reduced by knockdown of Nm23-H1 and Nm23-H2”. Besides, the “metastasis of the cells to the lung” value with MDA-MB-231 luc cells (FIG. 8, 10 mg/kg daily, 4 weeks) is recorded as “decreased”. Moreover, the “volume of the tumor” value with MDA-MB-231 luc cells (FIG. 9, 10 mg/kg daily) was “decreased”. In addition, the “cells that metastasized to the lung” value in the assay with MDA-MB-231 luc cells (FIG. 10, 10 mg/kg daily) is reported as “statistically significantly decreased”.
For `COc1ccc(/C=C/[C@H]2CCCCC2c2ccc(OC)c(OC)c2)cc1OC` (some centres unmarked) [Formula 4-1], the “Relative NDPK activity (±S.D)” value at Nm23-H1 [1] is listed as 2.41 (±0.29).
